Measurements taken from patent US20120226036A1, “S[…] COMPOUND” (UBE INDUSTRIES, LTD., priority 2009, published 2012).

Biological target: T1, human EP2 receptor (Homo sapiens, UniProt P43116)
T1 construct: host or cells: HEK293
Assay: Measurement of EP2 receptor binding action ([3H]prostaglandin E2 displacement, membrane fraction of HEK293 cells)
Conditions: tested as active form (R1 = hydroxy group) of the example compound; [3H]prostaglandin E2 10 nM, 60 minutes at 30° C.
Protocol: Measurement of EP2 receptor binding action was carried out in compliance with the method of Abramovitz et al. (Biochimica et Biophysica Acta, 1483, 285 (2000)). A test compound (a compound wherein R^1 in the compound represented by the formula (I) of the present invention is a hydroxy group) dissolved in dimethylsulfoxide and [^3H]prostaglandin E2 (NET-428, available from PerkinElmer) (final concentration: 10 nM) were added to a buffer solution (10 mM MES-KOH (pH 6.0), 10 mM MgCl2, 1 mM EDTA) in which was suspended 10 μg of a membrane fraction of HEK293 cells expressing human EP2 receptor (ES-562-M, available from Euroscreen) followed by incubating for 60 minutes at 30° C. The membrane fraction was recovered on glass fiber filter paper (GF/B, available from Whatmann) using a cell harvester (M30R, Brandel), and after washing with a buffer solution (10 mM MES-KOH (pH 6.0), 10 mM MgCl2), radioactivity was measured with a liquid scintillation analyzer (2000CA, Packard).
Ki=IC50/(1+([^3H]prostaglandin E2 concentration/Kd))
The dissociation constant (Kd value) was calculated by Scatchard analysis.

T1 sequence (P43116 whole entry): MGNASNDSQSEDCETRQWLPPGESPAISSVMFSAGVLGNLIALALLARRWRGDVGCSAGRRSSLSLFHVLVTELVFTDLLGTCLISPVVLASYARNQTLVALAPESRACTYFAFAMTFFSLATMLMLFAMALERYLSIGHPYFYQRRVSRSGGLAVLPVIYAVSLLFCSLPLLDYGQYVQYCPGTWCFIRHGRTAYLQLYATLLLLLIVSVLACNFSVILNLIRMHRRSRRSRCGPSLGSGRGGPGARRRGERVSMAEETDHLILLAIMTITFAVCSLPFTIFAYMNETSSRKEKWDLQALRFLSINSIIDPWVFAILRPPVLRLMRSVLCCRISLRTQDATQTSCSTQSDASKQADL

Substance | Ki
(2,2,2-Trifluoroethyl)(6-{[4-(pyrazol-1-yl)benzyl](pyridin-3-ylsulfonyl)aminomethyl}-pyridin-2-ylamino)acetate [Example 11] | 13 nM
(5-Phenylpentyl)(6-{(pyridin-2-ylsulfonyl)[4-(thiazol-2-yl)benzyl]aminomethyl}-pyridin-2-ylamino)acetate [Example 1] | 1.9 nM
